Assay results: patent US8999359B2, “Composition that prevents damage to trees by harmful insects and a prevention method thereof” (Syngenta Crop Protection, Inc., priority 2004, dated 2015)

Tests used:
Type in all cases: in vivo
[1] = test system: Adult Japanese Pine Sawyer; assay: Insecticidal activity test on Japanese pine sawyer (sprayed pine feed trees)
From the text: 1. Insecticidal Activity Test on Japanese Pine Sawyer
After uniformly spraying pine feed trees with spraying solutions at prescribed concentrations using a sprayer, adult Japanese pine sawyers were used in testing to investigate the progress of their mortality and degree of infestation.

Pine Caterpillar Larva = assay: Insecticidal activity test on pine caterpillar larva (spray)
From the text: 2. Insecticidal Activity Test on Pine Caterpillar Larva
The mortality of pine caterpillar larva was investigated after uniformly spraying pine feed trees and pine caterpillar larva with spraying solutions at prescribed concentrations using a sprayer.

Fall Webworm Larva = assay: Insecticidal activity test on fall webworm larva (spray)
From the text: 3. Insecticidal Activity Test on Fall Webworm Larva
The progress of the mortality of fall webworm larva was investigated after uniformly spraying feed trees (cherry) and fall webworm larva with spraying solutions at prescribed concentrations using a sprayer.

| Structure (SMILES) | Average infested area (cm2) ([1]; spraying solution 5 ppm) | Mortality (%) After 1 day ([1]; spraying solution 5 ppm) | Mortality (%) After 3 days ([1]; spraying solution 5 ppm) | Mortality (%) After 7 days ([1]; spraying solution 5 ppm) | Average infested area (cm2) ([1]; spraying solution 10 ppm) | Mortality (%) After 1 day ([1]; spraying solution 10 ppm) | Mortality (%) After 3 days ([1]; spraying solution 10 ppm) | Mortality (%) After 7 days ([1]; spraying solution 10 ppm) | Average infested area (cm2) ([1]; spraying solution 20 ppm) | Mortality (%) After 1 day ([1]; spraying solution 20 ppm) | Mortality (%) After 3 days ([1]; spraying solution 20 ppm) | Average infested area (cm2) ([1]; spraying solution 40 ppm) | Mortality (%) After 1 day ([1]; spraying solution 40 ppm) | Mortality (%) After 1 day (Pine Caterpillar Larva; spraying solution 100 ppm) | Mortality (%) After 3 days (Pine Caterpillar Larva; spraying solution 100 ppm) | Mortality (%) After 7 days (Pine Caterpillar Larva; spraying solution 100 ppm) | Mortality (%) After 1 day (Pine Caterpillar Larva; spraying solution 200 ppm) | Mortality (%) After 3 days (Pine Caterpillar Larva; spraying solution 200 ppm) | Mortality (%) After 1 day (Fall Webworm Larva; spraying solution 100 ppm) | Mortality (%) After 3 days (Fall Webworm Larva; spraying solution 100 ppm) | other results |
| --- | --- | --- | --- | --- | --- | --- | --- | --- | --- | --- | --- | --- | --- | --- | --- | --- | --- | --- | --- | --- | --- |
| CN1COCN(Cc2cnc(Cl)s2)/C1=N\[N+](=O)[O-] [Thiamethoxam, thiamethoxam] | 1.8 cm2 | 10% | 60% | 100% | 0.5 cm2 | 70% | 80% | 100% | 0.4 cm2 | 80% | 100% | 0.3 cm2 | 100% | 50% | 80% | 100% | 80% | 100% | 20% | 80% | Mortality (%) After 1 day (Pine Caterpillar Larva; spraying solution 20 ppm): 10%; Mortality (%) After 3 days (Pine Caterpillar Larva; spraying solution 20 ppm): 40%; Mortality (%) After 7 days (Pine Caterpillar Larva; spraying solution 20 ppm): 50%; Mortality (%) After 1 day (Pine Caterpillar Larva; spraying solution 50 ppm): 20%; Mortality (%) After 3 days (Pine Caterpillar Larva; spraying solution 50 ppm): 60%; Mortality (%) After 7 days (Pine Caterpillar Larva; spraying solution 50 ppm): 80%; Mortality (%) After 1 day (Fall Webworm Larva; spraying solution 50 ppm): 0%; Mortality (%) After 3 days (Fall Webworm Larva; spraying solution 50 ppm): 30%; Mortality (%) After 7 days (Fall Webworm Larva; spraying solution 50 ppm): 50%; Mortality (%) After 7 days (Fall Webworm Larva; spraying solution 100 ppm): 80%; Mortality (%) After 1 day (Fall Webworm Larva; spraying solution 200 ppm): 30%; Mortality (%) After 3 days (Fall Webworm Larva; spraying solution 200 ppm): 90%; Mortality (%) After 7 days (Fall Webworm Larva; spraying solution 200 ppm): 100%; Mortality (%) After 1 day (Fall Webworm Larva; spraying solution 300 ppm): 80%; Mortality (%) After 3 days (Fall Webworm Larva; spraying solution 300 ppm): 100% |
| COP(=S)(OC)Oc1ccc([N+](=O)[O-])c(C)c1 [Fenitrothion, fenitrothion] | 23.3 cm2 | 10% | 10% | 10% | 8.6 cm2 | 0% | 50% | 80% | 2.4 cm2 | 20% | 70% | 1.6 cm2 | 90% | 10% | 10% | 20% | 30% | 60% | 0% | 10% | Mortality (%) After 7 days ([1]; spraying solution 20 ppm): 100%; Mortality (%) After 3 days ([1]; spraying solution 40 ppm): 100%; Mortality (%) After 7 days (Pine Caterpillar Larva; spraying solution 200 ppm): 60%; Mortality (%) After 1 day (Pine Caterpillar Larva; spraying solution 500 ppm): 80%; Mortality (%) After 3 days (Pine Caterpillar Larva; spraying solution 500 ppm): 100%; Mortality (%) After 1 day (Pine Caterpillar Larva; spraying solution 1000 ppm): 100%; Mortality (%) After 7 days (Fall Webworm Larva; spraying solution 100 ppm): 20%; Mortality (%) After 1 day (Fall Webworm Larva; spraying solution 200 ppm): 30%; Mortality (%) After 3 days (Fall Webworm Larva; spraying solution 200 ppm): 60%; Mortality (%) After 7 days (Fall Webworm Larva; spraying solution 200 ppm): 70%; Mortality (%) After 1 day (Fall Webworm Larva; spraying solution 500 ppm): 80%; Mortality (%) After 3 days (Fall Webworm Larva; spraying solution 500 ppm): 100%; Mortality (%) After 1 day (Fall Webworm Larva; spraying solution 1000 ppm): 100% |
